The source of these data is PubChem BioAssay (NCI).

Among the test systems are CCRF-CEM leukemia; HOP-62 NSCLC; COLO 205 colon; MDA-MB-435; SF-268 CNS; M14 melanoma; DU-145 prostate; SR leukemia; HCT-15 colon; HCT-116 colon.
Common to all, as to experiment: NCI-60 cell line screen, 48 h

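Following 48 hours of exposure in 96-well plates, responses at five concentrations were used to interpolate endpoints linearly. GI50: concentration for 50% inhibition of growth. The concentration for full growth arrest is given as TGI.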

As for `CCOC(=O)C(O)(NC(C)=O)C(F)(F)F` (stereo not given), the TGI in the test with CCRF-CEM leukemia, in the test with HOP-62 NSCLC, with COLO 205 colon, in the test with MDA-MB-435, in the test with SF-268 CNS and in the test on M14 melanoma was greater than 100 µM each time. Besides, the TGI with DU-145 prostate, in the test on SR leukemia, in the test with HCT-15 colon and in the test with HCT-116 colon was greater than 100 µM each time.

With `O=c1[nH]nc(Cc2ccc(Cl)cc2)n1O`, the TGI in the test with CCRF-CEM leukemia, with HOP-62 NSCLC, in the test on COLO 205 colon, in the test on MDA-MB-435, in the test on SF-268 CNS and in the test with M14 melanoma was greater than 100 µM in each case. Moreover, the TGI in the test with DU-145 prostate, with SR leukemia, in the test with HCT-15 colon and in the test on HCT-116 colon was greater than 100 µM throughout.

For `COc1cccc(-c2nc3sccn3c2-c2ccnc(NCCNC(=O)Nc3cccc(C(F)(F)F)c3)n2)c1`, the GI50 in the test on CCRF-CEM leukemia was 3.43 µM; with HOP-62 NSCLC it was 6.71 µM; with COLO 205 colon, 5.37 µM; in the test with MDA-MB-435 it was 2.95 µM; in the test on SF-268 CNS, 4.59 µM; in the test on M14 melanoma, 2.96 µM. The GI50 in the test with DU-145 prostate was 5.13 µM; with SR leukemia it was 3.75 µM; with HCT-15 colon, 3.05 µM; in the test on HCT-116 colon, 3.45 µM. The TGI with CCRF-CEM leukemia was greater than 100 µM; in the test on HOP-62 NSCLC, 42.4 µM; with COLO 205 colon, 19.2 µM; in the test on MDA-MB-435 it was 12.3 µM; in the test with SF-268 CNS, 43.4 µM; in the test with M14 melanoma, 8.48 µM. The TGI stood at 95.5 µM in the test with DU-145 prostate, 29.7 µM in the test on SR leukemia, 16.4 µM in the test on HCT-15 colon and 11.6 µM with HCT-116 colon.

As to `NC(=O)CC(Nc1ncc2c(n1)-c1ccccc1OC2)C(=O)O` (stereo not given), the TGI in the test with CCRF-CEM leukemia, in the test on HOP-62 NSCLC, in the test on COLO 205 colon, with MDA-MB-435, in the test with SF-268 CNS and in the test with M14 melanoma was greater than 100 µM in each case. Further, the TGI with DU-145 prostate, in the test on SR leukemia, in the test with HCT-15 colon and in the test on HCT-116 colon was greater than 100 µM each time.

`CCOP(=O)(OCC)C(Nc1ccc(F)cc1)c1cccc([N+](=O)[O-])c1` (stereo not given): the TGI in the test with CCRF-CEM leukemia, with HOP-62 NSCLC, with COLO 205 colon, with MDA-MB-435, with SF-268 CNS and in the test with M14 melanoma was greater than 100 µM in each case. The TGI with DU-145 prostate, with SR leukemia, in the test with HCT-15 colon and with HCT-116 colon was greater than 100 µM in each case.

For the compound `CSC(=NC1=NC(C(F)(F)F)(C(F)(F)F)N=C(c2ccccc2)O1)SC`, the TGI was greater than 100 µM with CCRF-CEM leukemia; 59 µM in the test with HOP-62 NSCLC; 46.5 µM in the test on COLO 205 colon; 55 µM in the test on MDA-MB-435; greater than 100 µM with SF-268 CNS; 54.6 µM with M14 melanoma. In addition, the TGI in the test with DU-145 prostate is 45 µM; in the test on SR leukemia, 76.1 µM; in the test with HCT-15 colon, 33.5 µM; with HCT-116 colon, 16.3 µM.

Regarding `COC1/C=C/C(C)C(C(C)C(OC)C(C)CCC(=O)C(C)C(CCC(=O)O)OC)OC(=O)/C=C/C=C(\C)CC(OC)CC2=CC(=O)O[C@@H](C(C)C(OC)CC(OC)/C=C/C(C)C(OC)C1)[C@H]2O` (stereo not given in full), the TGI with CCRF-CEM leukemia is greater than 1.58 µM; with HOP-62 NSCLC it was greater than 5 µM; in the test on COLO 205 colon, greater than 5 µM; in the test with MDA-MB-435, greater than 5 µM; with SF-268 CNS, greater than 2.47 µM; in the test on M14 melanoma it was greater than 5 µM. Besides, the TGI with DU-145 prostate is greater than 5 µM; in the test on SR leukemia it was greater than 4.14 µM; in the test on HCT-15 colon, greater than 5 µM; with HCT-116 colon, greater than 5 µM.

Regarding `COC(=O)C(COC(=O)/C=C/c1ccc(OC(C)=O)c(OC(C)=O)c1)OC(=O)/C=C/c1ccc(OC(C)=O)c(OC(C)=O)c1` (stereo not given), the TGI in the test on CCRF-CEM leukemia stood at 50.6 µM; with HOP-62 NSCLC, 58.2 µM; in the test with COLO 205 colon it was 30 µM; with MDA-MB-435, 23.9 µM; in the test with SF-268 CNS, 64.2 µM; with M14 melanoma it was 20.6 µM. Also, the TGI with DU-145 prostate was 24.7 µM; in the test with SR leukemia, 11.1 µM; with HCT-15 colon it was greater than 100 µM; in the test with HCT-116 colon, 16.3 µM.

Consider `Cc1cc(S(=O)(=O)Nc2nnc3cc(C(F)(F)F)cc(C)n23)c(S)cc1Cl`, for which the TGI in the test on CCRF-CEM leukemia, in the test with HOP-62 NSCLC, in the test on COLO 205 colon, with MDA-MB-435, with SF-268 CNS and with M14 melanoma was greater than 100 µM throughout. Moreover, the TGI in the test on DU-145 prostate, in the test with SR leukemia, in the test with HCT-15 colon and in the test on HCT-116 colon was greater than 100 µM each time.

`O=C1OS2(OCc3cccc4cccc2c34)c2ccccc21` (stereo not given): the TGI in the test with CCRF-CEM leukemia, in the test on HOP-62 NSCLC, with COLO 205 colon, with MDA-MB-435, with SF-268 CNS and in the test with M14 melanoma was greater than 100 µM each time. The TGI in the test with DU-145 prostate, with SR leukemia, in the test with HCT-15 colon and in the test on HCT-116 colon was greater than 100 µM each time.

In the case of `COC(=O)c1cncc2c1CC1C3(C(=O)OC)C=NC(C4C(CO)=CCC43)C21C` (stereo not given), the TGI in the test on CCRF-CEM leukemia, with HOP-62 NSCLC, in the test with COLO 205 colon, with MDA-MB-435, in the test with SF-268 CNS and in the test with M14 melanoma was greater than 100 µM throughout. The TGI with DU-145 prostate, with SR leukemia, in the test with HCT-15 colon and with HCT-116 colon was greater than 100 µM each time.

For `O=C(c1ccco1)N(C(=S)OCc1ccccn1)c1ccccc1`, the TGI in the test with CCRF-CEM leukemia, in the test with HOP-62 NSCLC, with COLO 205 colon, in the test with MDA-MB-435, in the test with SF-268 CNS and in the test with M14 melanoma was greater than 100 µM each time. Further, the TGI with DU-145 prostate was greater than 100 µM; with SR leukemia, 8.58 µM; with HCT-15 colon, greater than 100 µM; in the test with HCT-116 colon, greater than 100 µM.
